System: Multidrug Resistant Acinetobacter baumannii Isolates
Assay: MIC of the micro-emulsions by broth dilution
Format: cell-based
Procedure: Nine sterile 7 mL PJ tubes were arranged in a rack in a row. Each tube contained one mL sterile MHB. Seven tubes were labeled as 7.847 mg+256 μg/mL, 3.923 mg+128 μg/mL, 1.961 mg+64 μg/mL, 0.980 mg+32 μg/mL, 0.490 mg+16 μg/mL, 0.245 mg+8 μg/mL and 0.122 mg+4 μg/mL. The eighth and ninth tubes were labeled as positive and negative controls, respectively.
The micro-emulsion made according to Example 1 was serially diluted to give two-fold dilutions as follows: one mL of the micro-emulsion of Example 1 was dispensed in the first tube (labeled as 7.847 mg+256 μg/mL) to give a concentration of 15.69 mg+512 μg drug/mL MHB. One mL of the first tube was added to the second tube (labeled as 3.923 mg+128 μg/mL) to give a concentration of 7.847 mg+256 μg drug/mL MHB. One mL of the second tube was transferred to the third tube (labeled as 1.961 mg+64 μg/mL) to give a concentration of 3.923 mg+128 drug/mL MHB. One mL of the third tube was added to the fourth tube (labeled as 0.980 mg+32 μg/mL) to give a concentration of 1.961 mg+64 drug/mL MHB. One mL of the fourth tube was dispensed in the fifth tube (labeled as 0.490 mg+16 μg/mL) to give a concentration of 0.980 mg+32 drug/mL MHB. One mL of the fifth tube was dispensed in the sixth tube (labeled as 0.245 mg+8 μg/mL) to give a concentration of 0.490 mg+16 μg drug/mL MHB. One mL of the sixth tube was added to the seventh tube (labeled as 0.122 mg+4 μg/mL) to give a concentration of 0.245 mg+8 μg drug/mL MHB. One mL of the content of the seventh tube was discarded. Inoculum suspensions (at 1-2×10^8 CFU/mL) were diluted 1:100 in MHB to obtain 1×10^6 CFU/mL. One mL of the diluted inoculum suspension (1×10^6 CFU/mL) was transferred to each tube except tube number nine.
Another nine sterile 7 mL PJ tubes were arranged in a rack in a row. Each tube contained one mL sterile MHB. […]
All inoculated tubes were incubated for 16-20 hours at 37° C. aerobically. After this incubation period, MIC was determined manually by observing the lowest concentration of antimicrobial agent showing no visible growth (turbidity). […]

With CC1=CC(=O)C(C(C)C)=CC1=O [Thymoquinone, 2-isopropyl-5-methylbenzo-1,4-quinone] as the molecule, how does the MIC (Isolate 121) read?
Its MIC is 64 µg/mL.

What about the MIC (Isolate 127) of the same molecule?
The MIC was 32 µg/mL.

What about the MIC (Isolate 129) of the same molecule?
The MIC was 32 µg/mL.

— US11617726B2, “Method for preventing, treating, or ameliorating a microbial infection” (priority 2018, dated 2023)
